Consider two molecules from EP2284541A1, “Fluorescence-based imaging and analysis of cells and cellular components using lipophilic dyes with improved specificity, spectral property and photostability” (Max-Planck-Gesellschaft zur Förderung der Wissenschaften …, priority 2009, dated 2011).

Where “and” joins values, the source holds several entries; their conditions need not be identical. Equal values may be shown once. Read-outs that look alike come from different tables or passages of the source.

Data set [1] is described as follows: Comparative lipophilicity: log P by direct solvent partitioning, measured in the fluorometer. In kind it is physicochemical. The settings on record: for log P: average, dye 0.1 µg/ml; for Δlog P: LD540 versus Bodipy 493/503. The protocol:
Dyes were dissolved in octanol-saturated water or oil-saturated methanol at a concentration of 0.1 μg/ml, measured in the fluorometer and shaken with an equal volume of water-saturated octanol or methanol-saturated oil for 20 min. Phases were separated by centrifugation. For octanol/water coefficients, the concentration of dye in the water phase was measured and used for calculations of log P. For the oil/methanol system, 10 μl samples of both phases were taken, diluted into 990 μl of isopropanol and measured in the fluorometer. The ratio was used for calculation of log p. Values obtained in the octanol/water system indicated higher lipophilicity of LD540. Since log P values larger 3 obtained by direct solvent partitioning are prone to errors, we also measured in the immiscible pair sunflower oil/methanol, where log p values for lipophilic substances are much smaller and less error prone. […] All values are average +/- […] values were determined by Students t-test.

The conditions of data set [2]: reported in U.S. Patent No. 5,446,157; cited from earlier work.
Data set [3] in a line: Spectral characteristics (excitation and emission maxima) in various solvents and in stained cells, spectrofluorometer. The data set is classed as physicochemical. The following applies: Ethanol, 2 x 10^-4 M.
Data set [4] can be described thus: Photobleaching of dyes in sunflower oil under constant illumination in a photometer cuvette. The data set is classed as physicochemical. The following applies: 0.1 µg/ml in sunflower oil; constant irradiation at absorption maximum. The method, then:
In a first experiment, the different dyes to be compared (LD540, Nile Red and Bodipy 493/503) were dissolved at 0.1 µg/ml in sunflower oil (which represents the cellular environment of the dyes) and constantly irradiated in a photometer cuvette at their respective absorption maximum. Excitation energy was equal for all three dyes. Every 15 seconds, fluorescence emission was recorded. […] The slope of the curves are directly proportional to the respective rate of photobleaching. Under these conditions, LD540 bleaches 3-times slower than Nile Red and 15-times slower than Bodipy 493/503.

The nature of data set [5]: Spectral characteristics (excitation and emission maxima) in various solvents and in stained cells, spectrofluorometer. In kind it is physicochemical. The method, then: Spectra were measured on a Jobin Yvon Fluoromax3 spectrofluorometer at 3 x 10^-7 M. Differentiated 3T3-L1 cells were stained with 0.2 µg/ml LD540 in DMEM + 10% FCS for 30 min, followed by three washes. Cells were trypsinized, suspended at 100.000 cells/ml in PBS and measured in a fluorescence cuvette.
^#Note that the excitation maximum fits to the one reported in U.S. Patent No. 5,446,157, while the emission maximum in said reference was indicated to be 560 nm.

Where [6] appears, read: Oil/methanol (sunflower oil), n = 3.
[7] abbreviates: 3T3-L1 cells stained with 0.2 µg/ml LD540, suspended in PBS.

As usually defined, the log P is the decadic logarithm of the partition coefficient of the neutral form, usually between octanol and water. Turning to `CC1=CC(C)=[N+]2C1=C(C)c1c(C)cc(C)n1[B-]2(F)F` [Bodipy 493/503, reference compound], the “log P” value in data set [1] (Octanol/water, n = 7) is 3.50; in data set [1] (setting [6]), 0.31.

For `CC1=C2C=C3CCCCC3=[N+]2[B-](F)(F)n2c1cc1c2CCCC1` [LD540], the “Δlog P” value in data set [1] (Octanol/water) was 0.88; in data set [1] (Oil/methanol) it was 0.44. Moreover, the “log P” value in data set [1] (Octanol/water, n = 7) came to 4.38; in data set [1] (setting [6]) it was 0.75. For the same molecule, the emission maximum in data set [2] is 560 nm; in data set [3] (1 mm cuvette), 550 nm; in data set [3] (4 mm cuvette), 557 nm. The excitation maximum in data set [2] is given as 535 nm. For the same molecule, the “bleaching, times slower than Nile Red” value in data set [4] is recorded as 3. Further, the Λ max exc is 540 nm and 540.2 nm in data set [5] (setting [7]); 536.0 nm in data set [5] (Ethanol, 3 x 10^-7 M); 539.7 nm in data set [5] (Hexane, 3 x 10^-7 M); 540.2 nm in data set [5] (Sunflower oil, 3 x 10^-7 M); 534.8 nm in data set [5] (Water, 3 x 10^-7 M). The λ max em is 545 nm and 545.0 nm in data set [5] (setting [7]); 542.5 nm in data set [5] (Ethanol, 3 x 10^-7 M); 542.2 nm in data set [5] (Hexane, 3 x 10^-7 M); 545.2 nm in data set [5] (Sunflower oil, 3 x 10^-7 M); 542.4 nm in data set [5] (Water, 3 x 10^-7 M).
